{
  "source": "ChEMBL document CHEMBL3751739",
  "about": "“Investigating the generation of hydrogen sulfide from the phosphonamidodithioate slow-release donor GYY4137” (Medchemcomm, 2015)",
  "key": {"RAW264.7 [1]": {"tested_on": "RAW264.7", "conditions": "Mus musculus, at 200 µM", "description": "Antiinflammatory activity in mouse RAW264.7 cells assessed as inhibition of LPS-induced PGE2 production at 200 uM preincubated for 1 hr before LPS challenge measured after 24 hrs by ELISA"}, "[2]": {"experiment": "Induction of H2S release in phosphate buffer at 200 uM using 5,5'-dithiobis-(2-nitrobenzoic acid)"}, "[3]": {"experiment": "Cytotoxicity against human Jurkat T cells assessed as reduction in cell viability at 200 uM after 24 hrs by tryphan blue assay"}, "RAW264.7 [4]": {"tested_on": "RAW264.7", "conditions": "Mus musculus, at 200 µM", "remark": "listed apart in the source", "description": "Antiinflammatory activity in mouse RAW264.7 cells assessed as inhibition of LPS-induced NO production at 200 uM preincubated for 1 hr before LPS challenge measured after 24 hrs by Griess method"}},
  "note": "Calls of active or inactive are those of the source. The rule behind the calls is not given here.",
  "data": [
    {"smiles": "COc1ccc(P([O-])(=S)N2CCOCC2)cc1.[K+]", "note": "(centres undefined)", "values": [
      {"measurement": "inhibition", "setting": "RAW264.7 [1]", "value": "inactive"},
      {"measurement": "Activity", "setting": "[2]", "value": "Not Active"},
      {"measurement": "Activity", "setting": "[3]", "value": "Non-toxic"},
      {"measurement": "inhibition", "setting": "RAW264.7 [4]", "value": "inactive"}
    ]}
  ]
}
